# Assay results: BindingDB's records for doi:10.1016/j.bmc.2005.01.048 (Pfizer, 2005)
# Target: T1, Renin (Homo sapiens, UniProt P00797)
# T1 sequence (P00797 whole entry): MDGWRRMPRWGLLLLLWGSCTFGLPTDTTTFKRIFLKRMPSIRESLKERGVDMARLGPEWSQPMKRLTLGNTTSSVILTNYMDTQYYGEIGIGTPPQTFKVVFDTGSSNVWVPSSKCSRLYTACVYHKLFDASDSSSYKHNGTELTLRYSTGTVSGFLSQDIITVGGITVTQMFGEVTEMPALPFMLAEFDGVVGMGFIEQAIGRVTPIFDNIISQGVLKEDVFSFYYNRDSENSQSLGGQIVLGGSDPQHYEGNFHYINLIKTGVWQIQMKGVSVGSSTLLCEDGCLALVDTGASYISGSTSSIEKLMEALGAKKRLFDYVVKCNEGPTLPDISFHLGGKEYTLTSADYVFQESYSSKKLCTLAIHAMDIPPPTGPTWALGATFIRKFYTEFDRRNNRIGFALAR
# Test: In Vitro Renin IC50 Determinations (Tandem GFP FRET Assay)
# Conditions: pH 7.4; 22 °C
# Text: The renin assay utilized a tandem Green Flourescent Protein (tGFP) substrate that was hydrolyzed by human rennin. The tGFP substrate contained a nine amino acid (Ile-His-Pro-Phe-His-Leu-Val-Ile-His) recognition sequence for human renin flanked by two GPF proteins (W1B and Topaz). Human rennin cleaves the leucine-valine site of the substrate linker. Once cleaved, the emission ratio changes. The change was monitored by the ratio of 530 nm (topaz) over 475 nm (W1B) with the excitation set at 432 nm and the cutoff at 515 nm. The assay used a 384 well plate format that was read using a Gemini XS Fluorometric plate reader (Molecular Devices). Compounds were screened at a starting concentration of 10 uM and used a fourfold eleven-point dilution regiment.
row,SMILES,IC50
1,COc1ccccc1COCCCOc1ccc(N2CCNC[C@@H]2COCc2ccc(-c3ccccc3)cc2)cc1 [(2R)-1-(4-{3-[(2-methoxyphenyl)methoxy]propoxy}phenyl)-2-{[(4-phenylphenyl)methoxy]methyl}piperazine],1020 nM
2,"COc1ccccc1COCCCOc1ccc(N2CCNC[C@@H]2COc2ccc3c(c2)N(CCNC(C)=O)CCC3)cc1 [N-[2-(7-{[(2R)-1-(4-{3-[(2-methoxyphenyl)methoxy]propoxy}phenyl)piperazin-2-yl]methoxy}-1,2,3,4-tetrahydroquinolin-1-yl)ethyl]acetamide]",0.5 nM
3,COc1ccccc1COCCCOc1ccc(N2C(=O)CNC[C@@H]2COc2ccc3c(c2)N(CCNC(C)=O)CCC3)cc1,0.3 nM
4,COc1ccccc1COCCCOc1ccc(N2CCNC[C@@H]2COc2ccc3ccccc3c2)cc1 [(2R)-1-(4-{3-[(2-methoxyphenyl)methoxy]propoxy}phenyl)-2-[(naphthalen-2-yloxy)methyl]piperazine],180 nM
